This passage reports logP results from the SangsterLogP compilation.

A short description of series [1]: method code SF, from DOI: 10.1002/ps.2780140605.

For orientation: logP means a log measure of how a compound divides between an organic and an aqueous phase.

`C#CCC(O)(c1cccnc1)C1CCCCC1` (stereo not drawn) yielded a logP in series [1] of 2.09.

As to `C#CCC(O)c1cccnc1` (stereo not drawn), the logP was 1.21.

Consider `C#CCC(O)(c1cccnc1)c1ccc2ccccc2c1` (stereo not drawn), for which the lipophilicity (logP) in series [1] was 2.14.

Molecule `C#CCC(O)(c1cccnc1)c1ccc(Cl)cc1Cl` (stereo not drawn) came in with a logP in series [1] of 2.29.

For the molecule `C#CCC(O)(c1cccnc1)c1ccc(Cl)c(Cl)c1` (stereo not drawn), the logP in series [1] was found to be 2.42.

In series [1], `C#CCC(O)(CC#C)c1cccnc1` yielded a log partition coefficient (logP) of 1.29.

`C#CCC(O)(c1ccc(C(C)C)cc1)c1cccnc1` (stereo not drawn) yielded a logP in series [1] of 2.16.

In the case of `C#CCC(O)(c1ccc(F)cc1)c1cccnc1` (stereo not drawn), in series [1], the logP was determined as 1.78.
